Measured values taken from patent US4889801A (Daiichi Pure Chemicals Co., Ltd., priority 1986, dated 1989).

Test system: 3α-hydroxysteroid oxidase
Experiment: Relative activities of the 3α-hydroxysteroid oxidase for various substrates
Type: biochemical, Pseudomonas testosterone ATCC 11996
Details: substrate of the oxidase; R.A. of cholic acid being 100
Description: Thereafter, the microorganism was cultured at the same temperature for 10-24 hours. After completion of the culture, the resultant culture broth was centrifuged to separate and collect cells. The thus-collected cells were suspended at 5° C. in 5 volumes of a 0.02 M phosphate buffer of pH 7.0, which contained 1% (w/v) of "Triton X-100" (BDH Ltd.), to a total volume of 1 l. By a cell disrupter, DINO-MILL (trade mark; manufactured by Willy A. Bachofen Maschinenfabrik AG), the cells were disrupted to release the enzyme. […] The extract was then added with 430 g of ammonium sulfate to a final concentration of 65% saturation, the precipitated fraction was collected by centrifugation. The precipitate was dissolved in a 0.lM phosphate buffer (pH 7) containing 0.1% of "Triton X-100" and the resultant mixture was dialyzed for 24 hours against the same buffer in order to remove any remaining ammonium sulfate.
An azide was added as a preservative to the enzyme solution.

| SMILES | R.A. (relative activity) [%] |
| --- | --- |
| C[C@]12CCC(=O)C[C@@H]1CC[C@@H]1[C@@H]2CC[C@]2(C)C(=O)CC[C@@H]12 [5α-Androstan-3,17-dione] | 0 |
| C[C@H](CCC(=O)O)[C@H]1CC[C@H]2[C@@H]3CC[C@@H]4C[C@H](O)CC[C@]4(C)[C@H]3CC[C@]12C [Cithocholic acid] | 57 |
| C[C@H](CCC(=O)O)[C@H]1CC[C@H]2[C@@H]3[C@H](O)C[C@@H]4C[C@H](O)CC[C@]4(C)[C@H]3C[C@H](O)[C@]12C [Cholic acid] | 100 |
| C[C@H](CCC(=O)O)[C@H]1CC[C@H]2[C@@H]3CC[C@@H]4C[C@H](O)CC[C@]4(C)[C@H]3C[C@H](O)[C@]12C [Deoxycholic acid] | 86 |
| C[C@]12CC[C@@H](O)C[C@H]1CC[C@@H]1[C@@H]2CC[C@]2(C)C(=O)CC[C@@H]12 [Ethiocholan-3α-ol-17-one] | 140 |
| C[C@H](CCC(=O)O)[C@H]1CC[C@H]2[C@@H]3[C@H](O)C[C@@H]4C[C@H](O)CC[C@]4(C)[C@H]3CC[C@]12C [Chenodeoxycholic acid] | 89 |
| C[C@]12CC[C@H]3[C@@H](CCC4=CC(=O)CC[C@@]43C)[C@@H]1CC[C@@H]2O [Testosterone] | 0 |
| C[C@H](CCC(=O)NCC(=O)O)[C@H]1CC[C@H]2[C@@H]3[C@H](O)C[C@@H]4C[C@H](O)CC[C@]4(C)[C@H]3C[C@H](O)[C@]12C [Glycocholic acid] | 95 |
| C[C@]12CC[C@@H](O)C[C@@H]1CC[C@@H]1[C@@H]2CC[C@]2(C)C(=O)CC[C@@H]12 [5α-Androstan-3α-ol-17-one] | 0 |
| C[C@]12CCC(=O)C[C@H]1CC[C@@H]1[C@@H]2CC[C@]2(C)C(=O)CC[C@@H]12 [5β-Androstan-3,17-dione] | 18 |
| CC(C)CCC[C@@H](C)[C@H]1CC[C@H]2[C@@H]3CC=C4C[C@@H](O)CC[C@]4(C)[C@H]3CC[C@]12C [Cholesterol] | 0 |

Test system: 3α-hydroxysteroid oxidase
Experiment: Enzymatic characteristics: substrate specificity and Km value
Type: biochemical, Pseudomonas testosterone ATCC 11996
Details: not given

| SMILES | Substrate specificity (oxidase acts on substrate or not) |
| --- | --- |
| C[C@@]12CCC[C@H]1[C@@H]1CC[C@@H]3C[C@H](O)CC[C@]3(C)[C@H]1CC2 [5β-androstan-3α-ol] | acts on |

Same assay, conditions: against ethiocholan-3α-ol-17-one

| SMILES | Km [µM] |
| --- | --- |
| C[C@]12CC[C@@H](O)C[C@H]1CC[C@@H]1[C@@H]2CC[C@]2(C)C(=O)CC[C@@H]12 [Ethiocholan-3α-ol-17-one] | 800 |
